The values that follow are results of earlier work, collected in patent US20140363396A1, “ONCE DAILY TREATMENT OF HEPATITIS C WITH RIBAVIRIN AND TARIBAVIRIN” (priority 2012, published 2014).

Molecules are shown by their SMILES.

The conditions of data set [1]: compared with ribavirin.
For data set [2] the following is noted: in vivo.
The next data set concerns the target T1, HCV NS3/4A protease (Hepatitis C virus genotype 1a, UniProt P27958).
T1 construct: NS3 consists of an N-terminal serine protease domain and a C-terminal helicase domain
Conditions: R-diastereomer compared with telaprevir.

The conditions of data set [3]: in vivo. The source holds these as a separate data set.

T1 sequence (P27958 1027-1657 limits assumed): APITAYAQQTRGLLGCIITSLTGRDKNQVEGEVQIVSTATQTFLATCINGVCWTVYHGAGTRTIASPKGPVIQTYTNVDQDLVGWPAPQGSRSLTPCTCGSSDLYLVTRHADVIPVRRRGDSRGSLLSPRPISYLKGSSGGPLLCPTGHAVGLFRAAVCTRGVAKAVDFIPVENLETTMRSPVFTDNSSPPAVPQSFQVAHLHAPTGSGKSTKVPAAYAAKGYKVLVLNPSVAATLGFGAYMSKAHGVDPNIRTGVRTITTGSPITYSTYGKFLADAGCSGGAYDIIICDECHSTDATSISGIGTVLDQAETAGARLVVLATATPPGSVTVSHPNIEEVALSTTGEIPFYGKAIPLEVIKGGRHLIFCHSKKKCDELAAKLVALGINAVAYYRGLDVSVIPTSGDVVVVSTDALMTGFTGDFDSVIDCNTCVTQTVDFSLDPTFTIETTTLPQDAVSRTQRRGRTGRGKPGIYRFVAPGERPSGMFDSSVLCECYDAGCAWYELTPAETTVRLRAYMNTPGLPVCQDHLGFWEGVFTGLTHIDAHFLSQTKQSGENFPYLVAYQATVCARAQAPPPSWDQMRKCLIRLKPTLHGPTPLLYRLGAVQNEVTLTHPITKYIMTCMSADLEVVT
T1 sequence (P27958 1658-1711 partner limits assumed): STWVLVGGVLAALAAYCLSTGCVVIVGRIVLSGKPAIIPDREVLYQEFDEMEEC

In the case of `CC(C)(C)NC(=O)N[C@H](C(=O)N1C[C@H]2[C@@H]([C@H]1C(=O)NC(CC1CCC1)C(=O)C(N)=O)C2(C)C)C(C)(C)C` (stereo partly drawn) [Boceprevir, (1R,5S)—N-[3-Amino-1-(cyclobutylmethyl)-2,3-dioxopropyl]-3-[2(S)-[[[(1,1-dimethylethyl)amino]carbonyl]amino]-3,3-dimethyl-1-oxobutyl]-6,6-dimethyl-3-azabicyclo[3.1.0]hexan-2(S)-carboxamide], the solubility in water result is on record as “slightly soluble”. Besides, the “solubility in methanol, ethanol and isopropanol” value (methanol, ethanol and isopropanol) is “freely soluble”. Turning to `NC(=O)c1ncn([C@H]2O[C@@H](CO)[C@H](O)[C@@H]2O)n1` [Levovirin, 1-β-L-ribofuranosyl-1H-1,2,4-triazole-3-carboxamide], the toxicity entry in data set [1] is recorded as “less toxic”.

With `NC(=O)c1ncn([C@@H]2O[C@H](CO)[C@@H](O)[C@H]2O)n1` [Ribavirin, 1-β-D-ribofuranosyl-1H-1,2,4-triazole-3-carboxamide], the solubility in water entry is recorded as “freely soluble”. For the same compound, the “solubility in anhydrous alcohol” value (anhydrous alcohol) is listed as “slightly soluble”. On to `CCC[C@@H](NC(=O)[C@@H]1[C@H]2CCC[C@H]2CN1C(=O)[C@@H](NC(=O)[C@@H](NC(=O)c1cnccn1)C1CCCCC1)C(C)(C)C)C(=O)C(=O)NC1CC1` [VRT-127394], for which, in data set [2], the “metabolite of telaprevir in plasma” value is listed as “major metabolite in plasma”. The “fold less potent than telaprevir” value on HCV NS3/4A protease was “approximately 30 fold”. As to `N=C(N)c1ncn([C@@H]2O[C@H](CO)[C@@H](O)[C@H]2O)n1` [taribavirin, 1-β-D-ribofuranosyl-1H-1,2,4-triazole-3-carboxamidine], the anemia result in data set [3] is “significantly less anemia”.
